In publication PMC8424644, “Thermodynamic Stability and Speciation of Ga(III) and Zr(IV) Complexes with High-Denticity Hydroxamate Chelators” (Inorganic Chemistry, 2021):
Marks after values point to notes of the source that are not given here.

Experiments:
Format in all cases: physicochemical
[1] = pFe calculation (ligand sequestering ability); conditions: pH=7.4, cL=10 μM, metal 1 μM
Text: Despite a large variety of PET chelators synthesized and tested in order to provide strong coordination of Ga(III) and Zr(IV) in vivo, until now it is has been hard to avoid the release of these metal ions in the body. Here we report two new Ga(III) and Zr(IV) hydroxamate chelators, designed to achieve an efficient sequestering of these metal ions but also to understand how the cyclization and the introduction of an additional hydroxamate group influences the stability of Zr(IV) complexes. Therefore, it is important to evaluate and compare the Ga(III)- and Zr(IV)-sequestering abilities of […] and […] with those of other chelators. […] page 15: 100 100 [ZrL4]+ [ZrL3]+ [ZrL4H ] -1 80 [ZrL3H ] 80 2+ -1 [ZrHL4] […] Experimental section. Ligands' sequestering ability Table S3. pFe values with various synthetic and biological chelators a Ligand pFe Chelating groups and ligands geometry […] 24.3 3 hydroxamate groups in a cyclic arrangement […] 23.3 4 hydroxamate groups in a linear arrangement […] 26.9 3 hydroxamate groups in a cyclic arrangement […] 23.61 3 hydroxamate groups in a linear arrangement […] DFOE 27.73 3 hydroxamate groups in a cyclic arrangement […] protonation and stability constants given in original publications; the hydrolysis constants of Fe(III) ions were taken from the literature14 and are given in the experimental section 15 (also on this page, place not known: […]

[2] = Ligand protonation constants, potentiometric titrations
Text: The metal affinity of a ligand depends on its acid-base properties; therefore, the protonation equilibria of […] and […] were first investigated. The proton-dissociation processes of the ligands were followed by potentiometric titrations in the pH range 2-11. The hydrolytic stability of the ligands was monitored by a second titration of the same sample with NaOH, following back-acidification of the initially titrated sample. […] As was previously reported in the example of α- and β-alanine hydroxamic acids, the amino group may be more acidic than the hydroxamic group, or vice versa. […] However, such a precise analysis is not needed for the determination of the stability of […]-metal complexes and therefore was not performed. […] The potentiometric titrations of ligands and their complexes were carried out using a Titrando 905 (Metrohm) automatic titrator system, equipped with a combined glass electrode (Mettler Toledo, InLab Semi-Micro, with […] Polymer filling) and a 800 Dosino dosing system, equipped with a a 2 mL micro buret. The ionic strength was fixed at I = 0.1 M with NaClO4. The electrode was calibrated daily in terms of hydrogen ion concentration using HClO4 (0.1 M) with CO2-free NaOH solutions (0.1 M).[76] A stream of high-purity argon, presaturated with water vapor, was passed over the surface of the solution cell, the cell was filled with 50 mL of the studied solution, and the system was thermostated at 25.0 ± 0.2 °C. At least three titrations were performed for each system, with a starting concentration of the ligand of 1 mM and a 1:1 metal to ligand molar ratio with a 10% excess of the ligand in the pH range 2-11. The purity and exact concentration of the ligand solutions were determined using the Gran method.[77] Special care was taken to ensure that complete equilibration was attained. […] The potentiometric data were refined with the […][78] and […][79] programs, which use nonlinear least-squares methods.

[3] = Fe(III) complex stability, pH-dependent UV–vis titrations
Text: To evaluate the thermodynamic stability of Ga(III) and Zr(IV) complexes of the investigated ligands, the binding properties and speciation of Fe(III) complexes have first been determined (all the details are given in the Supporting Information). There are several reasons for this protocol. First, (i) the electron configuration of Ga(III) (d^10) and Zr(IV) (d^0) hinders the attainment of spectral information for most of the complexes. Furthermore, (ii) both metal ions are highly acidic and they are readily hydrolyzed over almost the entire pH range. In addition, (iii) the high charge to size ratio of the Zr(IV) ion implies the formation of complexes with an exceptional thermodynamic stability (already at very low pH); as a consequence, the stability constants cannot be directly determined using standard potentiometric titrations. Thus, the thermodynamic stability constants of the Fe(III)-H3L1 and Fe(III)-H4L2 systems were first determined (using a combination of potentiometric and pH-dependent UV–vis titrations), followed by Fe(III)–Ga(III) and Fe(III)–Zr(IV) metal–metal competition experiments. […]

[4] = potentiometric titrations, 25 °C, I = 0.1 M NaClO4

Row | SMILES | pFe [1] | log K LH2 (ligand protonation) [2, 4] | log K LH3 (ligand protonation) [2, 4] | log K LH (ligand protonation) [2, 4] | log β LH2 (ligand protonation) [2, 4] | log β LH3 (ligand protonation) [2, 4] | log β LH (ligand protonation) [2, 4] | pK of [FeHL] ([FeHL1]+ to [FeL1]) ([3]; from UV–vis log β values (supplement)) | protonation constant of the amino group (log K) ([2]; not detectable in the experimental pH range 2–11, assumed on the basis of DFOB) | log K LH4 (ligand protonation) [2, 4] | log β LH4 (ligand protonation) [2, 4] | log β [FeHL] ([3]; pH-dependent UV–vis titrations, 25 °C, I = 0.1 M NaClO4)
1 | O=C1CCCN(O)C(=O)CCCNC(=O)CCCN(O)C(=O)CCCNC(=O)CCCN(O)C(=O)CCCN1 [H3L1, 1,11,21-Trihydroxy-1,6,11,16,21,26-hexaazacyclotriacontane-2,7,12,17,22,27-hexaone] | 24.3 | 9.24 ^d | 8.31 ^d | 9.89 ^d | 19.13(1) ^d | 27.44(1) ^d | 9.89(1) ^d | 3.21 |  |  |  | 
2 | N[C@H]1CCCCNC(=O)CCCN(O)C(=O)CCCNC(=O)CCCN(O)C(=O)CCCNC(=O)CCCN(O)C(=O)CCCNC(=O)CCCN(O)C(=O)CCCNC1=O [H4L2, (S)-43-Amino-6,16,26,36-tetrahydroxy-1,6,11,16,21,26,31,36,41-nonaazacycloheptatetracontane-2,7,12,17,22,27,32,37,42-nonaone] | 23.3 | 9.59 ^d | 8.94 ^d | 10.06 ^d | 19.65(1) ^d | 28.59(1) ^d | 10.06(1) ^d |  | > 11 | 8.18 ^d | 36.77(1) ^d | 36.96(7) ^e
